Experimental data reported in patent US20250034170A1, “SMALL MOLECULE MODULATORS OF GLUCOCEREBROSIDASE ACTIVITY AND USES THEREOF” (Vanqua Bio, Inc., priority 2021, published 2025).

Molecular target: T1, GCase (Homo sapiens, UniProt P04062)
T1 construct: endogenous in cells; host or cells: HeLa cells
T1 sequence (P04062 40-536): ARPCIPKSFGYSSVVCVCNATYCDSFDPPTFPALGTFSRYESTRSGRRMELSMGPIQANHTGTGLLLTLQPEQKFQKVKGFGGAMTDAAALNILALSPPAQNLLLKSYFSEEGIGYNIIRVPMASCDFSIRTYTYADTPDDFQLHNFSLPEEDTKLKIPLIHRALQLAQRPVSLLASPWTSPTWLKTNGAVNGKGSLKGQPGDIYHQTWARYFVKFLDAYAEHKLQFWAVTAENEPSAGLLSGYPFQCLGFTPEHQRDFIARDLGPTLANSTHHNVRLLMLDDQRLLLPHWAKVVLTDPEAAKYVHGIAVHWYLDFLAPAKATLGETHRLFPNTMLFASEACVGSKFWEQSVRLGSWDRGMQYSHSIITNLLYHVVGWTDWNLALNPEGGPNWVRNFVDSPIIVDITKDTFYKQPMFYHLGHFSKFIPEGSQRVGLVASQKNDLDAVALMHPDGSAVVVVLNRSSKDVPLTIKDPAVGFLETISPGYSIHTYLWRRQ
Assay: activation of GCase in a live cell PFB assay in HELA cells
Assay type: cell-based
Conditions: EC50 given as range classes
Description: Exemplary compounds were evaluated for activation of GCase in a live cell PFB assay in HELA cells (essentially as described in Ysselstein et al., “LRRK2 kinase activity regulates lysosomal glucocerebrosidase in neurons derived from Parkinson's disease patients” Nature Communications (2019) 10:5570). […] EC50 ranges: A: <10 μM; B: >10-50 μM; C: >50-100 μM; D: >100 μM.

Compound | EC50
FC(F)(F)Cn1ncc2cnc(N3CCC4(CN(c5ccnc(C(F)(F)F)c5)C4)C3)nc21 [Cmpd 424] | < 10 µM
FC(F)(F)c1cc(N2CC3(CCN(c4cncc(-c5nncs5)n4)C3)C2)ccn1 [Cmpd 425] | 50 to 100 µM
FC(F)(F)Cn1ncc2ncc(N3CCC4(CN(c5cnc(C(F)(F)F)nc5)C4)C3)nc21 [Cmpd 426] | 10 to 50 µM
FC(F)(F)c1ncc(N2CC3(CCN(c4cnc5cnn(C6COC6)c5n4)C3)C2)cn1 [Cmpd 427] | 10 to 50 µM
Cc1nn(C2COC2)c2nc(N3CCC4(CN(c5cnc(C(F)(F)F)nc5)C4)C3)cnc12 [Cmpd 428] | < 10 µM
Cc1nn(CC(F)F)c2nc(N3CCC4(CN(c5cnc(C(F)(F)F)nc5)C4)C3)cnc12 [Cmpd 429] | > 100 µM
FC(F)(F)c1ncc(N2CC3(CCN(c4cncc(-c5nncs5)n4)C3)C2)cn1 [Cmpd 430] | < 10 µM
FC(F)(F)Cn1ncc2cnc(N3CCC4(CN(c5cnc(C(F)(F)F)nc5)C4)C3)nc21 [Cmpd 432] | < 10 µM
Cc1nn(CC(F)F)c2nc(N3CCC4(CN(c5cnc(C(F)(F)F)nc5)C4)C3)ncc12 [Cmpd 433] | 10 to 50 µM

Same assay, conditions: activation of GCase, EC50 ranges

Compound | EC50
FC(F)(F)c1ncc(N2CC3(CCN(c4ncc5cnn(C6COC6)c5n4)C3)C2)cn1 [Cmpd 434] | 10 to 50 µM
O=C(c1cccc(OC(F)F)c1)N1CC2(CCN(c3cnc4cnn(CC(F)F)c4n3)C2)C1 [Cmpd 435] | < 10 µM
FC(F)Cn1ncc2ncc(N3CCC4(CN(c5ccc(OCC(F)(F)F)nc5)C4)C3)nc21 [Cmpd 436] | 10 to 50 µM
Cc1cc(C(F)(F)F)cnc1N1CC2(CCN(c3cnc4cnn(CC(F)F)c4n3)C2)C1 [Cmpd 437] | 50 to 100 µM
FC(F)Cn1ncc2ncc(N3CCC4(C3)CN(c3ncc(Cl)cn3)C4)nc21 [Cmpd 438] | 10 to 50 µM
FC(F)Cn1ncc2ncc(N3CCC4(CN(c5cnc(OCC(F)(F)F)nc5)C4)C3)nc21 [Cmpd 439] | 10 to 50 µM
FC(F)Cn1ncc2ncc(N3CCC4(CN(c5ccc(C(F)(F)F)nn5)C4)C3)nc21 [Cmpd 440] | 50 to 100 µM
O=C1CC2(CCN(c3cnc4cnn(CC(F)F)c4n3)CC2)CN1Cc1ccc(OC(F)(F)F)cc1 [Cmpd 441] | < 10 µM
O=C1CC2(CCN(c3cnc4cnn(CC(F)F)c4n3)CC2)CN1Cc1ccc(OC(F)F)cc1 [Cmpd 442] | < 10 µM
O=C1CC2(CCN(c3cnc4cnn(CC(F)F)c4n3)CC2)CN1Cc1ccc(C(F)(F)F)cc1 [Cmpd 443] | < 10 µM
O=C1CC2(CCN(c3cnc4cnn(CC(F)F)c4n3)CC2)CN1Cc1ccc(F)cc1 [Cmpd 444] | < 10 µM
O=C1CC2(CCN(c3cnc4cnn(CC(F)F)c4n3)CC2)CN1Cc1ccc(Cl)cc1 [Cmpd 445] | 10 to 50 µM
O=C1CC2(CCN(c3cnc4cnn(CC(F)F)c4n3)CC2)CN1Cc1ccc(C(F)(F)F)cc1F [Cmpd 446] | < 10 µM
O=C1CC2(CCN(c3cnc4cnn(CC(F)F)c4n3)CC2)CN1Cc1cc(F)ccc1F [Cmpd 447] | < 10 µM
O=C1CC2(CCN(c3cnc4cnn(CC(F)F)c4n3)CC2)CN1Cc1ccc(Cl)c(F)c1 [Cmpd 448] | < 10 µM
O=C1CC2(CCN(c3cnc4cnn(CC(F)F)c4n3)CC2)CN1Cc1ccc(F)c(Cl)c1 [Cmpd 449] | < 10 µM
FC(F)Cn1ncc2ncc(N3CCC4(CN(c5ccc(OC(F)F)nc5)C4)C3)nc21 [Cmpd 450] | 10 to 50 µM
FC(F)Cn1ncc2ncc(N3CCC4(CN(c5ccc(OC(F)(F)F)nc5)C4)C3)nc21 [Cmpd 451] | 10 to 50 µM
FC(F)Cn1ncc2ncc(N3CCC4(CN(c5ccnc(OC(F)F)c5)C4)C3)nc21 [Cmpd 452] | < 10 µM
Fc1cnc(N2CC3(CCN(c4cnc5cnn(CC(F)F)c5n4)C3)C2)cc1C(F)(F)F [Cmpd 453] | 10 to 50 µM
Cc1cc(N2CC3(CCN(c4cnc5cnn(C6COC6)c5n4)C3)C2)nc(C(F)(F)F)n1 [Cmpd 454] | 10 to 50 µM

Compound | EC50
Cc1nc(N2CC3(CCN(c4cnc5c(C)nn(C6COC6)c5n4)C3)C2)cc(C(F)(F)F)n1 [Cmpd 455] | 10 to 50 µM
Cc1cc(N2CC3(CCN(c4cnc5cnn(C6COC6)c5n4)CC3)CC2=O)nc(C(F)(F)F)n1 [Cmpd 456] | 10 to 50 µM
Cc1nc(N2CC3(CCN(c4cnc5cnn(C6COC6)c5n4)CC3)CC2=O)cc(C(F)(F)F)n1 [Cmpd 457] | 10 to 50 µM
Cc1cc(N2CC3(CCN(c4cnc5c(C)nn(C6COC6)c5n4)CC3)CC2=O)nc(C(F)(F)F)n1 [Cmpd 458] | < 10 µM
Cc1nc(N2CC3(CCN(c4cnc5c(C)nn(C6COC6)c5n4)CC3)CC2=O)cc(C(F)(F)F)n1 [Cmpd 459] | 10 to 50 µM
Cc1nn(C2COC2)c2nc(N3CCC4(CN(c5cnc(C(F)(F)F)nc5)C4)C3)ncc12 [Cmpd 460] | < 10 µM
Cc1ncc(N2CC3(CCN(c4cnc5cnn(CC(F)F)c5n4)C3)C2)cn1 [Cmpd 461] | > 100 µM
CCc1ncc(N2CC3(CCN(c4cnc5cnn(CC(F)F)c5n4)C3)C2)cn1 [Cmpd 462] | 10 to 50 µM
Cc1cc(N2CC3(CCN(c4cnc5cnn(CC(F)(F)F)c5n4)C3)C2)nc(C(F)(F)F)n1 [Cmpd 463] | 10 to 50 µM
Cc1cc(N2CC3(CCN(c4cnc5c(C)nn(CC(F)F)c5n4)C3)C2)nc(C(F)(F)F)n1 [Cmpd 464] | < 10 µM
Cc1cc(N2CC3(CCN(c4cncc(-c5nncs5)n4)C3)C2)nc(C(F)(F)F)n1 [Cmpd 465] | > 100 µM
Cc1cc(N2CC3(CCN(c4ncc5cnn(CC(F)F)c5n4)C3)C2)nc(C(F)(F)F)n1 [Cmpd 466] | > 100 µM
Cc1cc(N2CC3(CCN(c4ncc5cnn(CC(F)(F)F)c5n4)C3)C2)nc(C(F)(F)F)n1 [Cmpd 467] | < 10 µM
Cc1cc(N2CC3(CCN(c4ncc5c(C)nn(CC(F)F)c5n4)C3)C2)nc(C(F)(F)F)n1 [Cmpd 468] | < 10 µM
FC(F)(F)c1ncc(N2CC3(CCN(c4ncc5cnn(C6CCCCO6)c5n4)C3)C2)cn1 (stereo not drawn) [Cmpd 469] | > 100 µM
FC(F)(F)c1ncc(N2CC3(CCN(c4cnc5cnn(C6CCCCO6)c5n4)C3)C2)cn1 (stereo not drawn) [Cmpd 470] | 10 to 50 µM
Cc1cc(N2CC3(CCN(c4ncc5c(C)nn(C6COC6)c5n4)C3)C2)nc(C(F)(F)F)n1 [Cmpd 471] | < 10 µM
FC(F)Cn1ncc2ncc(N3CCC4(CCN(c5ccnc(C(F)(F)F)c5)C4)C3)nc21 (stereo not drawn) [Cmpd 472] | > 100 µM
FC(F)(F)Cn1ncc2ncc(N3CCC4(CCN(c5ccnc(C(F)(F)F)c5)C4)C3)nc21 (stereo not drawn) [Cmpd 473] | 10 to 50 µM
FC(F)(F)c1cc(N2CCC3(CCN(c4ncc5cnn(C6COC6)c5n4)C3)C2)ccn1 (stereo not drawn) [Cmpd 474] | > 100 µM
Cc1nn(C2COC2)c2nc(N3CCC4(CCN(c5ccnc(C(F)(F)F)c5)C4)C3)ncc12 (stereo not drawn) [Cmpd 475] | > 100 µM

Compound | EC50
Cc1nn(C2COC2)c2nc(N3CCC4(CCN(c5ccnc(C(F)(F)F)c5)C4)C3)cnc12 (stereo not drawn) [Cmpd 476] | 50 to 100 µM
FC(F)(F)Cn1ncc2ncc(N3CCC4(CC3)CN(c3cc(C(F)(F)F)ccn3)C4)nc21 [Cmpd 477] | < 10 µM
FC(F)(F)c1ccnc(N2CC3(CCN(c4ncc5cnn(C6COC6)c5n4)CC3)C2)c1 [Cmpd 478] | < 10 µM
Cc1nn(C2COC2)c2nc(N3CCC4(CC3)CN(c3cc(C(F)(F)F)ccn3)C4)ncc12 [Cmpd 479] | > 100 µM
Cc1nn(C2COC2)c2nc(N3CCC4(CC3)CN(c3cc(C(F)(F)F)ccn3)C4)cnc12 [Cmpd 480] | 10 to 50 µM
FC(F)Cn1ncc2ncc(N3CCC4(CCN(c5cnc(C(F)(F)F)nc5)C4)C3)nc21 (stereo not drawn) [Cmpd 481] | 10 to 50 µM
FC(F)Cn1ncc2ncc(N3CCC4(CCN(c5ccc(C(F)(F)F)nc5)C4)C3)nc21 (stereo not drawn) [Cmpd 482] | 10 to 50 µM
FC(F)Cn1ncc2ncc(N3CCC4(CCN(c5ccc(C(F)(F)F)cn5)C4)C3)nc21 (stereo not drawn) [Cmpd 483] | 10 to 50 µM
FC(F)Cn1ncc2ncc(N3CCC4(CCN(c5ccnc(C(F)(F)F)n5)C4)C3)nc21 (stereo not drawn) [Cmpd 484] | < 10 µM
Cc1nn(CC(F)F)c2nc(N3CCC4(CCN(c5ccnc(C(F)(F)F)c5)C4)C3)cnc12 (stereo not drawn) [Cmpd 485] | > 100 µM
Cc1nn(CC(F)F)c2nc(N3CCC4(CCN(c5ccnc(C(F)(F)F)c5)C4)C3)ncc12 (stereo not drawn) [Cmpd 486] | 50 to 100 µM
FC(F)(F)c1cc(N2CCC3(CCN(c4cnc5cnn(C6COC6)c5n4)C3)C2)ccn1 (stereo not drawn) [Cmpd 487] | 10 to 50 µM
FC(F)Cn1ncc2cnc(N3CCC4(CCN(c5ccnc(C(F)(F)F)c5)C4)C3)nc21 (stereo not drawn) [Cmpd 488] | > 100 µM
FC(F)(F)Cn1ncc2cnc(N3CCC4(CCN(c5ccnc(C(F)(F)F)c5)C4)C3)nc21 (stereo not drawn) [Cmpd 489] | 10 to 50 µM
Cc1nn(CC(F)F)c2nc(N3CCC4(CC3)CN(c3cc(C(F)(F)F)ccn3)C4)cnc12 [Cmpd 490] | < 10 µM
Cc1nn(CC(F)F)c2nc(N3CCC4(CC3)CN(c3cc(C(F)(F)F)ccn3)C4)ncc12 [Cmpd 491] | 10 to 50 µM
FC(F)Cn1ncc2cnc(N3CCC4(CC3)CN(c3cc(C(F)(F)F)ccn3)C4)nc21 [Cmpd 492] | 10 to 50 µM
FC(F)(F)c1ccnc(N2CC3(CCN(c4cnc5cnn(C6COC6)c5n4)CC3)C2)c1 [Cmpd 493] | < 10 µM
O=C1CC2(CCN(c3cnc4cnn(CC(F)F)c4n3)C2)CN1c1ccnc(C(F)(F)F)c1 (stereo not drawn) [Cmpd 494] | < 10 µM
Cc1nn(CC(F)F)c2nc(N3CCC4(CC(=O)N(c5ccnc(C(F)(F)F)c5)C4)C3)cnc12 (stereo not drawn) [Cmpd 495] | 10 to 50 µM
Cc1nn(CC(F)F)c2nc(N3CCC4(CC(=O)N(c5ccnc(C(F)(F)F)c5)C4)C3)ncc12 (stereo not drawn) [Cmpd 496] | 10 to 50 µM
